Values quoted from earlier work, collected in patent US20150040249A1, “Non-Human Animal Models of Depression and Methods of Use Thereof” (The Board of Trustees of the Leland Stanford Junior …, priority 2012, published 2015).

How the values were obtained:
[1] = rats; in vivo electrophysiological recordings
NMDAR = details: humans; acute

For `CNCCCN1c2ccccc2CCc2ccccc21` [desipramine], the “reduced bursting activity in depression models” value [1] is given as “restored”.
In the case of `CNC1(c2ccccc2Cl)CCCCC1=O` (centres unmarked) [ketamine], the depression-like symptoms (NMDAR) is given as “can acutely improve depression-like symptoms”.
